In article PMC6120666 (The EMBO Journal, 2018):

Biological target: T1, cIAP1 BIR2 - RIPK2 interaction (Homo sapiens, UniProt O43353)
T1 construct: Pulldown of RIPK2 from U2OS/NOD2 cell lysates with recombinant; endogenous in cells; host or cells: U2OS/NOD2 cell lysate (RIPK2); E. coli BL21 (GST-BIR2-cIAP1)
Assay: GST-BIR2-cIAP1 pulldown of RIPK2
Type: binding
Conditions: U2OS/NOD2 lysates; CSLP37 1.8 μM, CSLP43 2 μM
Protocol: Figure EV4 Inhibition of RIPK2 ubiquitination and cIAP1 binding by CSLP inhibitors • A Coomassie Blue staining of His Trap and gel filtration purified His6‐GST‐XIAP‐BIR2 WT and D214S recombinant proteins at two different concentrations as indicated. • B Pulldown of RIPK2 from U2OS/NOD2 cell lysates with recombinant GST‐BIR2‐cIAP1 in the presence of CSLP inhibitors. […] Purified material and lysates were analyzed by immunoblotting. • C, D Purification of Ub‐conjugates from U2OS/NOD2 cells (C) or THP‐1 cells (D) after treatment with L18‐MDP (200 ng/ml, 1 h) and CSLP compounds as indicated. Purified material and lysates were analyzed by immunoblotting. […]
For co‐immunoprecipitation of HA‐XIAP with RIPK2, transfected and treated cells were lysed in TBS buffer containing 0.5% NP‐40, cOmplete and PhosSTOP inhibitors (Roche) and the lysate was cleared by centrifugation. The lysates were incubated with anti‐HA‐agarose overnight, washed 3× with lysis buffer, and analyzed by immunoblotting. […] Bound material was washed 3× with lysis buffer or PBS, eluted with 15 mM Glutathione in PBS, and analyzed by immunoblotting. […] The bound material was eluted and analyzed as described above. Ubiquitin conjugates were purified from treated cells using GST‐1xUBA^ubq ubiquitin affinity reagent (termed TUBE pulldown) and analyzed by immunoblotting as described (Fiil et al, 2013). […]

T1 sequence (O43353 whole entry): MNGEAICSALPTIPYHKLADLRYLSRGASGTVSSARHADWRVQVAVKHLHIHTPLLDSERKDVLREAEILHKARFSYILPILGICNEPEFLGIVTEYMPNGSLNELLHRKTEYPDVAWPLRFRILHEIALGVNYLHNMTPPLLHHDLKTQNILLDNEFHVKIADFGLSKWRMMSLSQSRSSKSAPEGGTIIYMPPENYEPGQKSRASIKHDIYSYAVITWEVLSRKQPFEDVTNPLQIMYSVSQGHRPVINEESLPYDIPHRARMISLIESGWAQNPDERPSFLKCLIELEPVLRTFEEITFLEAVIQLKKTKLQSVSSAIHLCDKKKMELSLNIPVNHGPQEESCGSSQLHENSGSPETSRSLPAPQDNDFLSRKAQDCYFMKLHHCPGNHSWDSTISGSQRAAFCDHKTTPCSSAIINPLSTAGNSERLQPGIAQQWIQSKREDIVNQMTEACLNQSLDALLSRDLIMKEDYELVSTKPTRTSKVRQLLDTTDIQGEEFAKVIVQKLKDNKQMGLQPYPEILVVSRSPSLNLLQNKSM

Row | SMILES | interaction between GST-BIR2-cIAP1 and RIPK2 in cell lysates
1 | CCCS(=O)(=O)Nc1cc(-c2cc(-c3ccc(N4CCNCC4)cc3)cnc2N)cc(F)c1OC [CSLP37] | both antagonized
2 | CCCS(=O)(=O)Nc1cc(-c2cc(-c3ccc(N4CCNCC4)cc3)cnc2N)cc(OC)c1OC [CSLP43] | both antagonized
